Assays:
[1] = tested on: ABUTH (Abutilon theophrasti); experiment: Postemergence herbicidal evaluation; format: in vivo, Medic.; details: postemergence
Summary of the method: (§1)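 Seedlings grown for about two weeks were sprayed postemergence and then kept under standard greenhouse care. Injury was rated visually 4–5 weeks after treatment on a 0–9 scale against untreated controls, and ratings from repeat tests were averaged.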

[2] = tested on: AMBEL (Ambrosia artemisifolia); experiment: Postemergence herbicidal evaluation; format: in vivo, L.; details: postemergence
Summary of the method: as §1

[3] = tested on: CASOB (Cassia obtusifolia); experiment: Postemergence herbicidal evaluation; format: in vivo, L.; details: postemergence
Summary of the method: as §1

[4] = tested on: CHEAL (Chenopodium album); experiment: Postemergence herbicidal evaluation; format: in vivo, L.; details: postemergence
Summary of the method: as §1

[5] = tested on: IPOHE (Ipomoea hederacea); experiment: Postemergence herbicidal evaluation; format: in vivo, (L.) Jacq.; details: postemergence
Summary of the method: as §1

[6] = tested on: GLXMAW (Soybean, Williams); experiment: Postemergence herbicidal evaluation; format: in vivo, Glycine max, (L.) Merr. cv Williams; details: postemergence
Summary of the method: as §1

ORYSAT (Rice, Tebonnet) [7] = experiment: Postemergence herbicidal evaluation; format: in vivo, Oryza sativa, (L.) Tebonnet; details: postemergence
Summary of the method: as §1

[8] = tested on: ABUTH (Abutilon theophrasti); experiment: Preemergence herbicidal evaluation; format: in vivo, Medic.; details: preemergence, rated 4-5 weeks after treatment
[9] = tested on: AMBEL (Ambrosia artemisifolia); experiment: Preemergence herbicidal evaluation; format: in vivo, L.; details: preemergence, rated 4-5 weeks after treatment
Summary of the method: (§2)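 Greenhouse preemergence test: freshly planted cups were sprayed once with an aqueous acetone solution of compound. Injury was judged visually on a 0–9 scale relative to a control, four to five weeks later.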

[10] = tested on: CASOB (Cassia obtusifolia); experiment: Preemergence herbicidal evaluation; format: in vivo, L.; details: preemergence, rated 4-5 weeks after treatment
Summary of the method: as §2

[11] = tested on: CHEAL (Chenopodium album); experiment: Preemergence herbicidal evaluation; format: in vivo, L.; details: preemergence, rated 4-5 weeks after treatment
Summary of the method: as §2

[12] = tested on: IPOHE (Ipomoea hederacea); experiment: Preemergence herbicidal evaluation; format: in vivo, (L.) Jacq.; details: preemergence, rated 4-5 weeks after treatment
[13] = tested on: ECHCG (Echinochloa crus-galli); experiment: Preemergence herbicidal evaluation; format: in vivo, (L.) Beau; details: preemergence, rated 4-5 weeks after treatment
Summary of the method: as §2

SETVI (Setaria viridis) = experiment: Preemergence herbicidal evaluation; format: in vivo, (L.) Beau; details: preemergence, rated 4-5 weeks after treatment
Summary of the method: as §2

[14] = tested on: GLXMAW (Soybean, Williams); experiment: Preemergence herbicidal evaluation; format: in vivo, Glycine max, (L.) Merr. cv Williams; details: preemergence, rated 4-5 weeks after treatment
[15] = tested on: TRZAWR (Wheat, Winter, cv Riband); experiment: Preemergence herbicidal evaluation; format: in vivo, Triticum aestivum; details: preemergence, rated 4-5 weeks after treatment
Summary of the method: as §2

ZEAMX (Corn, Field) = experiment: Preemergence herbicidal evaluation; format: in vivo, Zea mays, L.; details: preemergence, rated 4-5 weeks after treatment
CYPIR (Cyperus iria) = experiment: Flooded paddy, preemergence weed control; format: in vivo; details: rated 3-4 weeks after treatment, 0-9 rating scale
Summary of the method: (§3)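 Plants were established from seed or propagating organs in flooded silt loam, with the water surface held 1.5 to 3 cm above the soil for the entire experiment. Injury was assessed visually against a control and given a 0-9 score.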

[16] = tested on: MOOVA (Monochoria vaginalis); experiment: Flooded paddy, preemergence weed control; format: in vivo, Presl.; details: rated 3-4 weeks after treatment, 0-9 rating scale
Summary of the method: as §3

ORYSAT (Rice, Tebonnet) [17] = experiment: Flooded paddy, post-transplant rice tolerance; format: in vivo, Oryza sativa, (L.) Tebonnet; details: flooded paddy, post-transplant rice, rated 3-4 weeks after treatment, 0-9 rating scale
Summary of the method: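 Ten-day-old seedlings, 2/pot, silt loam; flood kept 1.5–3 cm over soil; herbicide applied post-transplant; greenhouse; score 0–9 visual vs control.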

SMILES: Cn1c(C(F)(F)F)cc(=O)n(-c2ccc3snc(-c4sccc4CO)c3c2)c1=O [Compound 85, 3-[3-[3-(hydroxymethyl)-2-thienyl]-1,2-benzisothiazol-5-yl]-1-methyl-6-(trifluoromethyl)uracil]
- ABUTH herbicidal rating ([1]; rate 0.0320 kg/ha): 9.0
- ABUTH herbicidal rating ([1]; rate 0.0620 kg/ha): 9.0
- AMBEL herbicidal rating ([2]; rate 0.0320 kg/ha): 5.0
- AMBEL herbicidal rating ([2]; rate 0.0620 kg/ha): 9.0
- CASOB herbicidal rating ([3]; rate 0.0320 kg/ha): 4.0
- CASOB herbicidal rating ([3]; rate 0.0620 kg/ha): 4.0
- CHEAL herbicidal rating ([4]; rate 0.0320 kg/ha): 9.0
- CHEAL herbicidal rating ([4]; rate 0.0620 kg/ha): 9.0
- IPOHE herbicidal rating ([5]; rate 0.0320 kg/ha): 9.0
- IPOHE herbicidal rating ([5]; rate 0.0620 kg/ha): 9.0
- GLXMAW herbicidal rating ([6]; rate 0.0320 kg/ha): 3.5
- GLXMAW herbicidal rating ([6]; rate 0.0620 kg/ha): 4.0
- ORYSAT herbicidal rating (ORYSAT (Rice, Tebonnet) [7]; rate 0.0320 kg/ha): 3.5
- ORYSAT herbicidal rating (ORYSAT (Rice, Tebonnet) [7]; rate 0.0620 kg/ha): 4.5
- Preemergence herbicidal rating ABUTH ([8]; rate 0.0620 kg/ha): 9.0
- Preemergence herbicidal rating ABUTH ([8]; rate 0.1250 kg/ha): 9.0
- Preemergence herbicidal rating ABUTH ([8]; rate 0.2500 kg/ha): 9.0
- Preemergence herbicidal rating AMBEL ([9]; rate 0.0620 kg/ha): 8.0
- Preemergence herbicidal rating AMBEL ([9]; rate 0.1250 kg/ha): 9.0
- Preemergence herbicidal rating AMBEL ([9]; rate 0.2500 kg/ha): 9.0
- Preemergence herbicidal rating CASOB ([10]; rate 0.0620 kg/ha): 0.0
- Preemergence herbicidal rating CASOB ([10]; rate 0.1250 kg/ha): 3.0
- Preemergence herbicidal rating CASOB ([10]; rate 0.2500 kg/ha): 5.0
- Preemergence herbicidal rating CHEAL ([11]; rate 0.0620 kg/ha): 9.0
- Preemergence herbicidal rating CHEAL ([11]; rate 0.1250 kg/ha): 9.0
- Preemergence herbicidal rating CHEAL ([11]; rate 0.2500 kg/ha): 9.0
- Preemergence herbicidal rating IPOHE ([12]; rate 0.0620 kg/ha): 0.0
- Preemergence herbicidal rating IPOHE ([12]; rate 0.1250 kg/ha): 4.0
- Preemergence herbicidal rating IPOHE ([12]; rate 0.2500 kg/ha): 7.0
- Preemergence herbicidal rating ECHCG ([13]; rate 0.0620 kg/ha): 0.0
- Preemergence herbicidal rating ECHCG ([13]; rate 0.1250 kg/ha): 3.0
- Preemergence herbicidal rating ECHCG ([13]; rate 0.2500 kg/ha): 4.0
- Preemergence herbicidal rating SETVI (SETVI (Setaria viridis); rate 0.0620 kg/ha): 4.0
- Preemergence herbicidal rating SETVI (SETVI (Setaria viridis); rate 0.1250 kg/ha): 9.0
- Preemergence herbicidal rating SETVI (SETVI (Setaria viridis); rate 0.2500 kg/ha): 7.0
- Preemergence herbicidal rating GLXMAW ([14]; rate 0.0620 kg/ha): 0.0
- Preemergence herbicidal rating GLXMAW ([14]; rate 0.1250 kg/ha): 3.0
- Preemergence herbicidal rating GLXMAW ([14]; rate 0.2500 kg/ha): 9.0
- Preemergence herbicidal rating TRZAWR ([15]; rate 0.0620 kg/ha): 0.0
- Preemergence herbicidal rating TRZAWR ([15]; rate 0.1250 kg/ha): 0.0
- Preemergence herbicidal rating TRZAWR ([15]; rate 0.2500 kg/ha): 3.0
- Preemergence herbicidal rating ZEAMX (ZEAMX (Corn, Field); rate 0.0620 kg/ha): 0.0
- Preemergence herbicidal rating ZEAMX (ZEAMX (Corn, Field); rate 0.1250 kg/ha): 3.0
- Preemergence herbicidal rating ZEAMX (ZEAMX (Corn, Field); rate 0.2500 kg/ha): 3.0
- CYPIR herbicidal rating (CYPIR (Cyperus iria); rate 0.0080 kg/ha): 0.0
- CYPIR herbicidal rating (CYPIR (Cyperus iria); rate 0.0320 kg/ha): 0.0
- herbicidal rating, CYPIR (CYPIR (Cyperus iria); rate 0.1250 kg/ha): 6.0
- MOOVA herbicidal rating ([16]; rate 0.0080 kg/ha): 9.0
- MOOVA herbicidal rating ([16]; rate 0.0320 kg/ha): 7.0
- herbicidal rating, MOOVA ([16]; rate 0.1250 kg/ha): 9.0
- ORYSAT herbicidal rating (transplanted rice tolerance) (ORYSAT (Rice, Tebonnet) [17]; rate 0.0080 kg/ha): 0.0
- ORYSAT herbicidal rating (transplanted rice tolerance) (ORYSAT (Rice, Tebonnet) [17]; rate 0.0320 kg/ha): 1.5
- herbicidal rating, ORYSAT (rice tolerance) (ORYSAT (Rice, Tebonnet) [17]; rate 0.1250 kg/ha): 5.5
